Laboratory results as given in patent publication US7534892B2, “Sulfonamide compound” (Shionogi & Co., Ltd., priority 2004, dated 2009).
Read-outs that look alike come from different tables or passages of the source.

Tested on: food intake of rats
Assay: Antifeeding activity: food intake after intracerebroventricular infusion of NPYY5 agonist
Assay type: in vivo
Conditions: Rattus norvegicus, compound 30 mg/kg oral, 0.1 nmol NPYY5 agonist infused one hour later
Description: A guide cannula was implanted in ventriculus lateralis of 7-week-old rats (200-300 g) reared in free-feeding. Then the rats reared in free-feeding about for 1 week.
A compound of the present invention was suspended in 0.5% HPMC solution (hydroxypropylmethylcellulose: 60SH-50, Shin-Etsu Chemical Co., Ltd.) to get a final concentration of 15 mg/ml.
Rats were given 2 mL/kg of a suspension of a compound of the present invention (the compound 30 mg/kg) by oral administration. On the other hand, rats in a control group were given the same amount of 0.5% HPMC by oral administration.
NPYY5 agonist ([cPP^1-7, NPY^19-23, Ala^31, Aib^32, Gln^34]-hPancreatic Polypeptide: Tocris Coockson) was dissolved in a physiological salt solution to be 0.1 nmol/10 μL. 0.1 nmol of the solution was infused via a guide cannula in a head of the rat one hour after giving a compound of the present invention. Immediately after the infusion, the amount of the remaining food was measured.
The amount of the remaining food was measured 1, 2 or 4 hour(s) after the infusion of an agonist and the food intake for this period was calculated. An antifeeding rate of a compound of the present invention against the food intake of rats in a control group was calculated.

[1] = food intake 1 h after infusion vs control group, read-out: Antifeeding activity (%) 1 h
[2] = food intake 2 h after infusion vs control group, read-out: Antifeeding activity (%) 2 h
[3] = food intake 4 h after infusion vs control group, read-out: Antifeeding activity (%) 4 h

Row | SMILES | inhibition in vivo at 30 mg/kg [1] | inhibition in vivo at 30 mg/kg [2] | inhibition in vivo at 30 mg/kg [3]
1 | CCn1c2ccccc2c2cc(NC(=O)CCCCNS(=O)(=O)CC)ccc21 [Id-2] | 100% | 100% | 100%
2 | CN(C)S(=O)(=O)N[C@H]1CC[C@H](C(=O)Nc2ccc(C(F)(F)F)cc2)CC1 [Ii-1] | 42% | 38% | 31%
3 | CCS(=O)(=O)NCCCCC(=O)Nc1ccc2c(c1)c1c(n2C(C)C)CCCC1 [Id-4] | 100% | 94% | 95%
4 | CCn1c2ccccc2c2cc(NC(=O)[C@H]3CC[C@H](NS(=O)(=O)CC)CC3)ccc21 [Id-1] | 5% | 37% | 49%
5 | CCS(=O)(=O)NCCCCC(=O)Nc1ccc(OCC(F)(F)F)nc1 [Ia-3] | 85% | 78% | 74%
6 | CCS(=O)(=O)N[C@H]1CC[C@H](C(=O)Nc2ccc(OCC(F)(F)F)nc2)CC1 [Ia-2] | 98% | 77% | 56%
7 | CCn1c2ccccc2c2cc(NC(=O)CCNS(=O)(=O)CC(F)(F)F)ccc21 [Ig-1] | 67% | 44% | 48%
8 | CCS(=O)(=O)N[C@H]1CC[C@H](C(=O)Nc2ccc(N3C[C@@H](C)O[C@@H](C)C3)cc2)CC1 [Ib-1] | 90% | 95% | 92%
